Data set [1] has as its system longitudinal muscle of guinea pig ileum. Description: Calcium antagonism: inhibition of KCl-induced contraction of ileum longitudinal muscle. As to conditions: Cavia porcellus, 1 h; 10^-8 M; 60 min after addition; 80 mM KCl contraction = 100%; 37° C.; read-out: Inhibition rate. As to the method: A guinea pig having a body weight ranging from 350 g to 400 g was exsanguinated to death and laparotomized, to extract ileum. According to the method of Rosenberger et al. (Rosenberger et al., Can. J. Physiol. Pharmacol. 57, 333-347 (1979)), a sample of longitudinal muscle was prepared from the ileum. Then, a mixed gas consisting of 95% oxygen and 5% carbon dioxide was aerated, while the atmosphere was maintained at 37° C. The sample of the longitudinal muscle of the extracted ileum was placed in a magnus tube containing 20 ml of Tyrode solution, and suspended at 0.5 g of tension. As a comparison, 80 mM KCl was administered to contract the longitudinal muscle. Subsequently, 60 min after the addition of each of the test compounds (10^-8 M), the contraction with KCl was again induced. The level of the contraction obtained by the administration of 80 mM KCl was assigned to 100%, and the inhibition rate thereto was determined.

Data set [2] deals with spontaneous hypertensive rats. Description: Antihypertensive action in spontaneous hypertensive rats (SHR), oral administration. In kind it is in vivo, rat. As to conditions: 10 mg/kg orally, (basal - lowest blood pressure)/basal x 100. As to the method: Test compounds were orally administered to spontaneous hypertensive rats (abbreviated as "SHR" hereinafter) to examine antihypertensive actions thereof.
Two to three days after the operation, the catheter was drawn out from the dorsum cervical part of the rat, and was connected to a blood-pressure measuring device (Polygraph RM-6000 manufactured by Nippon Koden K. K.). Blood pressure and heart rate were measured under the condition without anesthesia and restraint. The test compounds were suspended in 0.5% carboxymethylcellulose for oral administration. To the basal blood pressure obtained by measuring blood pressure over four hours, the lowest blood pressure decreased by the test compounds was used to determine the rate of blood-pressure decrease.
Rate of blood-pressure decrease (%)=(A-B)/A×100
The compound numbers correspond to those indicated in Examples.

Data set [3] is described as follows: Acute toxicity test, intravenous, mice. Conditions: mouse, in vivo, male ddY mice, observed two weeks. As to the method: Male ddY mice (5-7 weeks old) were divided into groups each consisting of 4 mice. The test compounds were dissolved in physiological saline containing 50% polyethylene glycol 400, which was then administered intravenously to the mice, and they were put under observation over two weeks. The analysis was done following the Van der Worden method.

One may read the inhibition as the percentage by which the read-out fell short of the control. Consider `COC(=O)C1=C(C)NC(C)=C(C(=O)OC2CCOc3ccccc32)C1c1cccc(Cl)c1Cl` (stereo not drawn) [Compound 3], for which, in data set [1], the inhibition at 0.01 µM was found to be 81%. Besides, the “Rate of blood pressure decrease” value in data set [2] was determined as 35.1%.

As to `CCOC(=O)C1=C(C)NC(C)=C(C(=O)OC2CC(C)(C)Oc3ccccc32)C1c1cccc(Cl)c1Cl` (stereo not drawn) [Compound 27, 3-(3,4-dihydro-2,2-dimethyl-2H-benzo[b]pyran-4-yl)5-ethyl 1,4-dihydro-2,6-dimethyl-4-(2,3-dichlorophenyl)pyridine-3,5-dicarboxylate], the inhibition at 0.01 µM in data set [1] worked out at 42%. Moreover, the “Rate of blood pressure decrease” value in data set [2] is recorded as 36.9%.

For `COC(=O)C1=C(C)NC(C)=C(C(=O)OC)C1c1ccccc1[N+](=O)[O-]` [Nifedipine, reference compound], in data set [1], the inhibition at 0.01 µM worked out at 98%. In addition, the “Rate of blood pressure decrease” value in data set [2] was 24.3%.

In general, LD50 refers to the dose at which mortality reaches 50%. For `COC(=O)C1=C(C)NC(C)=C(C(=O)OC2CC(C)(C)Oc3ccccc32)C1c1cccc(Cl)c1Cl` (stereo not drawn) [Compound 21, 3-(3,4-dihydro-2,2-dimethyl-2H-benzo[b]pyran-4-yl)5-methtyl 1,4-dihydro-2,6-dimethyl-4-(2,3-dichorophenyl)pyridine-3,5-dicarboxylate], in data set [1], the inhibition at 0.01 µM turned out to be 69%. Besides, in data set [2], the “Rate of blood pressure decrease” value is given as 37.3%. The same compound yielded an LD50 at 336 h in data set [3] of 29.7 mg/kg.
